Test results published in ChEMBL document CHEMBL5375989, “Pioneering 4,11-Dioxo-4,11-dihydro-1H-anthra[2,3-d]imidazol-3-ium Compounds as Promising Survivin Inhibitors by Targeting ILF3/NF110 for Cancer Therapy” (J Med Chem, 2023).

Legend:
[1] = test system: ASPC1; test: Antiproliferative activity against human ASPC1 cells assessed as inhibition of cell growth measured after 48 hrs by MTT assay; assay type: functional, cell-based; settings: aspc1
[2] = test system: PANC-1; test: Antiproliferative activity against human PANC-1 cells assessed as inhibition of cell growth measured after 48 hrs by MTT assay; assay type: functional, cell-based; settings: panc-1
[3] = test system: HepG2; test: Antiproliferative activity against human HepG2 cells assessed as inhibition of cell growth measured after 48 hrs by MTT assay; assay type: functional, cell-based; settings: hepg2
[4] = test system: NCI-H1299; test: Antiproliferative activity against human NCI-H1299 cells assessed as inhibition of cell growth measured after 48 hrs by MTT assay; assay type: functional, cell-based; settings: nci-h1299
[5] = test system: 143B; test: Antiproliferative activity against human 143B cells assessed as inhibition of cell growth measured after 48 hrs by MTT assay; assay type: functional, cell-based; settings: 143b
[6] = test system: HeLa; test: Antiproliferative activity against human HeLa cells assessed as inhibition of cell growth measured after 48 hrs by MTT assay; assay type: functional, cell-based; settings: hela
[7] = test system: HUVEC; test: Antiproliferative activity against human HUVEC cells assessed as inhibition of cell growth measured after 48 hrs by MTT assay; assay type: toxicity, cell-based; settings: huvec
[8] = test system: MRC5; test: Antiproliferative activity against human MRC5 cells assessed as inhibition of cell growth measured after 48 hrs by MTT assay; assay type: toxicity, cell-based; settings: mrc5
[9] = test system: A549; test: Induction of cell cycle arrest in human A549 cells assessed as accumulation of cells at G0/G1 phase at 0.1 uM incubated for 48 hrs by PI staining based flow cytometry analysis (reference value: 63.26%); assay type: functional
[10] = Toxicity in BALB/c nude mouse assessed as effect on body weight at 2 mg/kg, sc administered every 2 days for 14 days; assay type: organism-based; settings: in vivo, 336 h, time 14 day
[11] = Toxicity in BALB/c nude mouse assessed as death at 4 mg/kg, sc administered every 2 days for 14 days; assay type: organism-based; settings: in vivo, 336 h, time 14 day
[12] = Toxicity in BALB/c nude mouse assessed as dermatitis at 2 mg/kg, sc administered every 2 days for 14 days; assay type: organism-based; settings: in vivo, 336 h, time 14 day
[13] = Toxicity in BALB/c nude mouse assessed as dermatitis at 4 mg/kg, sc administered every 2 days for 14 days; assay type: organism-based; settings: in vivo, 336 h, time 14 day
[14] = Toxicity in BALB/c nude mouse assessed as body weight loss at 4 mg/kg, sc administered every 2 days for 14 days; assay type: organism-based; settings: in vivo, 336 h, time 14 day
[15] = biological target: T1, Interleukin enhancer-binding factor 3 (Homo sapiens, UniProt Q12906); test: Binding affinity to ILF3 (unknown origin) assessed as dissociation constant at upto 1 uM by SPR method
T1 sequence (Q12906 whole entry): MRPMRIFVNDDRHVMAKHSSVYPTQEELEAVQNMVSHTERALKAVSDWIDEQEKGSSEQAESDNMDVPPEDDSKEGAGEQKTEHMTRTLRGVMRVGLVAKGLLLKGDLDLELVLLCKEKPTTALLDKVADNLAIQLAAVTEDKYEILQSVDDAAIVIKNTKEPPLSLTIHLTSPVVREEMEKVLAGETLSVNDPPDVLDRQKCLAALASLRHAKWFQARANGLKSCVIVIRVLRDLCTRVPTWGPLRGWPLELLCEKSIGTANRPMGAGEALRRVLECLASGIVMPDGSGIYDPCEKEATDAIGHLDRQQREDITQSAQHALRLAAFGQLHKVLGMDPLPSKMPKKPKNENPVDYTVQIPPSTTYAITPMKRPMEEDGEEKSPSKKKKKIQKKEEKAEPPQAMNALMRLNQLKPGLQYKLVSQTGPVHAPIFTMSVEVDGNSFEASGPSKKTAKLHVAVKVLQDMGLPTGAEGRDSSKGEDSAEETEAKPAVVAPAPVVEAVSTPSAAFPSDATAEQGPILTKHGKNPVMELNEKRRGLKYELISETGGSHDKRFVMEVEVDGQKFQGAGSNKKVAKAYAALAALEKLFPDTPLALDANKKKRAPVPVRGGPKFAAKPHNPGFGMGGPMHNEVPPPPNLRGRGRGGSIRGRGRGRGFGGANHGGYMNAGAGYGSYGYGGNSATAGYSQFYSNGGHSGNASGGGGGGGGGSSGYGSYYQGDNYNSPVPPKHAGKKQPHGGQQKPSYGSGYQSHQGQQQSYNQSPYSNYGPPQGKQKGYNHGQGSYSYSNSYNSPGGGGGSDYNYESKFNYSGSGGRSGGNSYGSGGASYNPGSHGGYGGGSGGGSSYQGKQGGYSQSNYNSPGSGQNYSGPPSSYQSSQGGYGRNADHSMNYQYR

[16] = Drug distribution in BALB/C nude mouse heart xenografted with human A549 cells at 2 mg/kg measured after 2 to 6 hrs by UPLC-3Q analysis; assay type: ADME, organism-based; settings: in vivo, time 2-6 hrs
[17] = Drug distribution in BALB/C nude mouse tumor xenografted with human A549 cells at 2 mg/kg measured after 2 to 6 hrs by UPLC-3Q analysis; assay type: ADME, organism-based, Neoplasm; settings: in vivo, time 2-6 hrs
[18] = Drug metabolism in BALB/C nude mouse kidney xenografted with human A549 cells at 2 mg/kg measured after 2 to 6 hrs by UPLC-3Q analysis; assay type: ADME, organism-based; settings: in vivo, time 2-6 hrs
[19] = Toxicity in BALB/c mouse assessed as morphological changes in liver at 2 to 4 mg/kg by H and E staining based analysis; assay type: organism-based; settings: in vivo, dose 2-4 mg/kg
[20] = Toxicity in BALB/c mouse assessed as morphological changes in spleen at 2 to 4 mg/kg by H and E staining based analysis; assay type: organism-based; settings: in vivo, dose 2-4 mg/kg
[21] = test system: A549; test: Induction of apoptosis in human A549 cells assessed as viable cells at 0.04 uM measured after 48 hrs by annexin V and PI staining based flow cytometry analysis (reference value: 93.3%); assay type: functional; settings: Homo sapiens, A549, 48 h, read-out: Activity
[22] = test system: A549; test: Induction of apoptosis in human A549 cells assessed as viable cells at 0.1 uM measured after 48 hrs by annexin V and PI staining based flow cytometry analysis (reference value: 93.3%); assay type: functional; settings: Homo sapiens, A549, 48 h, read-out: Activity
[23] = test system: A549; test: Induction of apoptosis in human A549 cells assessed as viable cells at 0.25 uM measured after 48 hrs by annexin V and PI staining based flow cytometry analysis (reference value: 93.3%); assay type: functional; settings: Homo sapiens, A549, 48 h, read-out: Activity
[24] = test system: A549; test: Induction of apoptosis in human A549 cells assessed as early apoptotic cells at 0.1 uM measured after 48 hrs by annexin V and PI staining based flow cytometry analysis (reference value: 0.71%); assay type: functional
[25] = test system: A549; test: Induction of apoptosis in human A549 cells assessed as late apoptotic cells at 0.04 uM measured after 48 hrs by annexin V and PI staining based flow cytometry analysis (reference value: 4.70%); assay type: functional
[26] = test system: A549; test: Induction of apoptosis in human A549 cells assessed as late apoptotic cells at 0.25 uM measured after 48 hrs by annexin V and PI staining based flow cytometry analysis (reference value: 4.70%); assay type: functional
[27] = test system: A549; test: Induction of apoptosis in human A549 cells assessed as necrotic cells at 0.1 uM measured after 48 hrs by annexin V and PI staining based flow cytometry analysis (reference value: 1.47%); assay type: functional
[28] = test system: A549; test: Induction of apoptosis in human A549 cells assessed as necrotic cells at 0.25 uM measured after 48 hrs by annexin V and PI staining based flow cytometry analysis (reference value: 1.47%); assay type: functional
[29] = test system: TE-1; test: cells; settings: Homo sapiens, TE-1, 48 h
Description: Antiproliferative activity against human TE-1 cells assessed as inhibition of cell growth measured after 48 hrs by MTT assay

## Cn1c[n+](C)c2c1C(=O)c1cc3ccccc3cc1C2=O.[I-]
[1]
  IC50: 0.25 µM
[2]
  IC50: 0.08 µM
[3]
  IC50: 0.25 µM
[4]
  IC50: 0.51 µM
[5]
  IC50: 0.59 µM
[6]
  IC50: 1.16 µM
[7]
  IC50: 6.66 µM
[8]
  IC50: 6.9 µM
[9]
  Activity: 85.37%
[10]
  Activity: Non-Toxic
[11]
  Activity: Non-Toxic
[12]
  Activity: Non-Toxic
[13]
  Activity: Non-Toxic
[14]
  Activity: Non-Toxic
[15]
  Kd: 0.163 µM
[16]
  Drug uptake: Not Active
[17]
  Drug uptake: Active
[18]
  Drug metabolism: Metabolite_Detected
[19]
  Activity: Non-Toxic
[20]
  Activity: Non-Toxic
[21]
  viability at 0.04 µM: 27.8%
[22]
  viability at 0.1 µM: 8.7%
[23]
  viability at 0.25 µM: 3.28%
[24]
  Activity: 2.55%
[25]
  Activity: 61.4%
[26]
  Activity: 90%
[27]
  Activity: 6.62%
[28]
  Activity: 4.32%
[29]
  IC50: 0.05 µM
